From paper PMC8624485, “Modeling, Synthesis, and Biological Evaluation of Potential Retinoid-X-Receptor (RXR) Selective Agonists: Analogs of 4-[1-(3,5,5,8,8-Pentamethyl-5,6,7,8-tetrahyro-2-naphthyl)ethynyl]benzoic Acid (Bexarotene) and 6-(Ethyl(4-isobutoxy-3-isopropylphenyl)amino)nicotinic Acid (NEt-4IB)” (International Journal of Molecular Sciences, 2021)
Where two headings read alike, the source gives them in different places.

What was measured:
Format in all cases: cell-based
human RARα = target: T1, human RARα (Homo sapiens, UniProt P10276); assay: RARE-luciferase reporter assay in HEK293 cells; conditions: HEK293, all-trans-RA set to 100%
T1 construct: expressed in transfected cells; host or cells: HEK293 cells
T1 sequence (P10276 1-462): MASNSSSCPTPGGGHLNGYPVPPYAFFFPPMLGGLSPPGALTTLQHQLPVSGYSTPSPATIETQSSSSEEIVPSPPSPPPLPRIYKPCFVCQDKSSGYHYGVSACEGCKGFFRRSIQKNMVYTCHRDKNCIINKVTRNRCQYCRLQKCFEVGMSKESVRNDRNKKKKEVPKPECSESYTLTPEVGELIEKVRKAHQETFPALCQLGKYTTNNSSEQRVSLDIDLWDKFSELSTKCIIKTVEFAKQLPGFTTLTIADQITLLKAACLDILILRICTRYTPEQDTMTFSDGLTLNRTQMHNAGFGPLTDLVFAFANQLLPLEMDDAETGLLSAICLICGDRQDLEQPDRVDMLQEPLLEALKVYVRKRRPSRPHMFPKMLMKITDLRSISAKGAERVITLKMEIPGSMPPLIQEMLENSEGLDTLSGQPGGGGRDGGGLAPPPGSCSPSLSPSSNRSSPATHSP
Procedure: Human embryonic kidney cells (HEK293) were plated at 60,000 cells per well in a 24-well plate and maintained as described above. After 24 h, the cells were transfected with 250 ng pTK-DR5(X2)-Luc, 25 ng pCMX-human RARα, and 20 ng renilla utilizing 1.25 µL polyethylenimine (PEI) per well for 24 h. The sequence of the double DR5 RARE is: 5′-[…]-3′ (DR5 responsive elements underlined). The cells were treated with ethanol vehicle (0.1%), all-trans-retinoic acid (RA, the ligand for RAR), or the indicated rexinoid at a final concentration of 10 nM. After 24 h of treatment, the retinoid activity was measured as described above (dual luciferase assay). […] Three independent assays were conducted with triplicate samples for each treatment group. The value for RA was set to 100%. […]

[1] = target: T2, RXR-LXR heterodimer (LXR/LXRE) (Homo sapiens, UniProt P19793); assay: LXRE-luciferase transactivation assay in HEK293 cells; conditions: for LXRE Activity (% of Bex): 100 nM compound alone, HEK293, bexarotene (1) set to 100%; for LHS Score (vs. Bex): LXRE Heterodimer Specificity: LXRE:RXRE activity ratio, compound 1 set to 1.0
T2 construct: expressed in transfected cells; host or cells: HEK293 cells
T2 sequence (P19793 1-462): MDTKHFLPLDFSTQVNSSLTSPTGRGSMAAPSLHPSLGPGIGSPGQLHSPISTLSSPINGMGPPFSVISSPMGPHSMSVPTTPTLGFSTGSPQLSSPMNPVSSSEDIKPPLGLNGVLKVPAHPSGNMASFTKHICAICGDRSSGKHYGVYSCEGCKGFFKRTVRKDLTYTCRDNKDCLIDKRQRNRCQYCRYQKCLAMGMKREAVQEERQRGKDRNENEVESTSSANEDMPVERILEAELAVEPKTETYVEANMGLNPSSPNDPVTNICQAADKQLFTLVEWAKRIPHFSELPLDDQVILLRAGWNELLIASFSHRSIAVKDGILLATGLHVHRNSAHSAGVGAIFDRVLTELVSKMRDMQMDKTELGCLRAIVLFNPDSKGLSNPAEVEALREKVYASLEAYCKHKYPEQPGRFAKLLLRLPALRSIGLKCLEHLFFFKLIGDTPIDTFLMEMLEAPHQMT
T2 sequence (Q13133 1-447 partner): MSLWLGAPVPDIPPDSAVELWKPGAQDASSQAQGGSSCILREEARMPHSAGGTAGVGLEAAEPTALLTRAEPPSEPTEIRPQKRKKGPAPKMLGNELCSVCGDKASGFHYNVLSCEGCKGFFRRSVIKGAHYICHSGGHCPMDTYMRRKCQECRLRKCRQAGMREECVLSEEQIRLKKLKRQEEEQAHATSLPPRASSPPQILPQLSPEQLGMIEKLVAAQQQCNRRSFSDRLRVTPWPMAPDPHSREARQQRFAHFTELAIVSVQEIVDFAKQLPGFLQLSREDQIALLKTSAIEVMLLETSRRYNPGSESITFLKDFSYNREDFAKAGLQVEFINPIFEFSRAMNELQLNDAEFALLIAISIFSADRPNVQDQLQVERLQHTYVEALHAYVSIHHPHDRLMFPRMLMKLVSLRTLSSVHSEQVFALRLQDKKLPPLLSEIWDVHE
Procedure: The activation from this natural LXRE in our system was tested in the presence of either 100 nM RXR agonists alone or in combination with 100 nM of both the RXR agonist and LXR agonist T0901317 (TO). […] The LXRE-mediated assays were performed using human embryonic cells (HEK293) seeded at a density of 60,000 cells/well in a 24-well plate and maintained in DMEM (Hyclone) supplemented with 10% fetal bovine serum, 100 µg/mL streptomycin, 100 U/mL penicillin (Invitrogen, Carlsbad, CA, USA) at 37 degrees Celsius, 5% CO2 for 24 h. The cells were co-transfected with 250 ng of an LXRE-luciferase reporter gene, 50 ng of pSG5-human RXRα, and 20 ng of renilla control plasmid. […] After 24 h post treatment, the cells were lysed and the transcriptional activity mediated by the LXRE was measured using the Dual Luciferase Assay System (Promega, Madison, WI) in a Sirius FB12 luminometer (Berthold Detection Systems, Pforzheim, Germany) according to the manufacturer’s protocol. The data are a compilation of between three and six independent assays with each treatment group dosed in triplicate for each independent assay. […] Bars on all graphs indicate standard deviation of the replicate experiments.
Cells were transfected for 24 h utilizing a liposome-mediated transfection protocol and then treated with the ethanol vehicle, or 100 nM of the indicated compound alone or in combination with 100 nM TO901317 (TO). […] (A) Human HEK-293 cells were transfected and treated as described in Figure 8.

RXRα = target: T3, RXRα (Homo sapiens, UniProt P19793); assay: UAS/Gal4 GFP reporter assay of RXRα activation in UAS-GFP x KMT2A-MLLT3 cells
T3 construct: expressed in transfected cells; host or cells: UAS-GFP x KMT2A-MLLT3 cells (retroviral transduction)
T3 sequence (P19793 227-458 limits assumed): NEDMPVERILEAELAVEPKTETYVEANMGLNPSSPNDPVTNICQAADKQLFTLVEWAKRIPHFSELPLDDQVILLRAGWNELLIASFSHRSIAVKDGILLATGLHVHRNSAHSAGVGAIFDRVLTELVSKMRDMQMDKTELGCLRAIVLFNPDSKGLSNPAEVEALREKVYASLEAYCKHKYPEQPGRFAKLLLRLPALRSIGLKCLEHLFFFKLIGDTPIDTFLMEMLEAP
Procedure: Cells were treated, and after 48 h, GFP measured by a ZE5 Flow Cytometer (Biorad).

Saccharomyces cerevisiae = Saccharomyces cerevisiae toxicity assay; conditions: 3 h incubation, colony count vs DMSO only control; highest concentration tested 11 µg/µL
Procedure: These compounds were also assessed for mutagenicity and toxicity in Saccharomyces cerevisiae and the toxicity results are summarized in Table 1. No compound was mutagenic in this assay.
All compounds were tested for toxicity and mutagenicity using a Saccharomyces cerevisiae based assay as described previously. Toxicity was assessed in this assay (Table 1), comparing growth on plates to control treatments. Compounds were solubilized in DMSO at increasing concentrations and cells were incubated with the compounds for 3 h before plating on selective media or YPD to assess toxicity and mutagenicity. Cytotoxicity was assessed as described. Growth of colonies on the full nutrient YPD plate for each treatment was compared to the DMSO only control. The concentration at which 50% cell death (as indicated by colony count compared to DMSO only control) +/−10% cell death is reported as the 50% killing rate. The highest concentration tested was 11 µg/µL.

[2] = RXRα activation, value (SD), Table 1 does not say whether GFP or Luc assay, read-out: EC50 (nM) +/−(SD)

C=C(c1ccc(C(=O)O)cc1)c1ccc2c(c1)C(C)(C)CCC2(C)C [Compound 27, 4-(1-(5,5,8,8-tetramethyl-5,6,7,8-tetrahydronaphthalen-2-yl)vinyl)benzoic acid, reference compound]
RARE Activity (%RA at 10 nM) (human RARα): 1.5 %RA
LXRE Activity (% of Bex) [1]: 82.4 % of Bex
LHS Score (vs. Bex) [1]: 1.0
EC50 (RXRα): 171 nM
Cyto-Toxicity (50% Cell Death) (Saccharomyces cerevisiae): 0.5 µg/µL

C=C(c1ncc(C(=O)O)cn1)c1cc2c(cc1C)C(C)(C)CC2(C)C [Compound 32, 2-(1-(1,1,3,3,6-pentamethyl-2,3-dihydro-1H-inden-5-yl)vinyl)pyrimidine-5-carboxylic Acid]
RARE Activity (%RA at 10 nM) (human RARα): 12.9 %RA
LXRE Activity (% of Bex) [1]: 46.0 % of Bex
LHS Score (vs. Bex) [1]: 0.38
EC50 (RXRα; [2]): 34.4 nM
Cyto-Toxicity (50% Cell Death) (Saccharomyces cerevisiae): none

C=C(c1ccc2c(c1)C(C)(C)CCC2(C)C)c1ncc(C(=O)O)cn1 [Compound 34, 2-(1-(5,5,8,8-tetramethyl-5,6,7,8-tetrahydronaphthalen-2-yl)vinyl)pyrimidine-5-carboxylic acid]
RARE Activity (%RA at 10 nM) (human RARα): 10.3 %RA
LXRE Activity (% of Bex) [1]: 77.6 % of Bex
LHS Score (vs. Bex) [1]: 0.70
EC50 (RXRα; [2]): 56.2 nM
Cyto-Toxicity (50% Cell Death) (Saccharomyces cerevisiae): none

CCN(c1ccc(OCC(C)C)c(C(C)C)c1)c1ccc(C(=O)O)cn1 [Compound 25, 6-(ethyl(4-isobutoxy-3-isopropylphenyl)amino)nicotinic acid]
RARE Activity (%RA at 10 nM) (human RARα): 2.9 %RA
LXRE Activity (% of Bex) [1]: 72.4 % of Bex
EC50 (RXRα; [2]): 274 nM
Cyto-Toxicity (50% Cell Death) (Saccharomyces cerevisiae): none

C=C(c1ccc(C(=O)O)c(F)c1)c1ccc2c(c1)C(C)(C)CCC2(C)C [Compound 36, 2-fluoro-4-(1-(5,5,8,8-tetramethyl-5,6,7,8-tetrahydronaphthalen-2-yl)vinyl)benzoic Acid]
RARE Activity (%RA at 10 nM) (human RARα): 1.4 %RA
LXRE Activity (% of Bex) [1]: 85.2 % of Bex
EC50 (RXRα; [2]): 375 nM
Cyto-Toxicity (50% Cell Death) (Saccharomyces cerevisiae): 0.08 µg/µL

CCN(c1ccc(OCC(C)C)c(C(C)C)c1)c1ncc(C(=O)O)cn1 [Compound 28, 2-(ethyl(4-isobutoxy-3-isopropylphenyl)amino)pyrimidine-5-carboxylic acid]
RARE Activity (%RA at 10 nM) (human RARα): 1.6 %RA
LXRE Activity (% of Bex) [1]: 77.7 % of Bex
EC50 (RXRα; [2]): 297 nM
Cyto-Toxicity (50% Cell Death) (Saccharomyces cerevisiae): 1 µg/µL

C=C(c1ccc(C(=O)O)cc1)c1cc2c(cc1C)C(C)(C)CC2(C)C [Compound 26, reference compound]
RARE Activity (%RA at 10 nM) (human RARα): 3.0 %RA
LXRE activity in combination with LXR ligand T0901317 (TO) ([1]; 100 nM compound + 100 nM T0901317, HEK293, compared with TO+1): higher activity than TO+1
LXRE Activity (% of Bex) [1]: 94.5 % of Bex
LHS Score (vs. Bex) [1]: 0.66
EC50 (RXRα; [2]): 70.1 nM
Cyto-Toxicity (50% Cell Death) (Saccharomyces cerevisiae): none

C=C(c1ccc(C(=O)O)c(O)c1)c1cc2c(cc1C)C(C)(C)CCC2(C)C [Compound 37a, 2-Hydroxy-4-(1-(3,5,5,8,8-pentamethyl-5,6,7,8-tetrahydronaphthalen-2-yl)vinyl)benzoic acid]
RARE Activity (%RA at 10 nM) (human RARα): 2.9 %RA
LXRE Activity (% of Bex) [1]: 91.1 % of Bex
LHS Score (vs. Bex) [1]: 0.45
EC50 (RXRα; [2]): 24.2 nM
Cyto-Toxicity (50% Cell Death) (Saccharomyces cerevisiae): 1 µg/µL

C=C(c1ccc(C(=O)O)c(O)c1)c1ccc2c(c1)C(C)(C)CCC2(C)C [Compound 37b, 2-Hydroxy-4-(1-(5,5,8,8-tetramethyl-5,6,7,8-tetrahydronaphthalen-2-yl)vinyl)benzoic Acid]
RARE Activity (%RA at 10 nM) (human RARα): 5.2 %RA
LXRE Activity (% of Bex) [1]: 69.1 % of Bex
LHS Score (vs. Bex) [1]: 0.91
EC50 (RXRα; [2]): 413 nM
Cyto-Toxicity (50% Cell Death) (Saccharomyces cerevisiae): 0.5 µg/µL

Cc1cc2c(cc1C1(c3ncc(C(=O)O)cn3)CC1)C(C)(C)CC2(C)C [Compound 33, 2-(1-(1,1,3,3,6-pentamethyl-2,3-dihydro-1H-inden-5-yl)cyclopropyl)pyrimidine-5-carboxylic Acid]
RARE Activity (%RA at 10 nM) (human RARα): 5.9 %RA
LXRE Activity (% of Bex) [1]: 50.9 % of Bex
LHS Score (vs. Bex) [1]: 0.38
EC50 (RXRα; [2]): 17 nM
Cyto-Toxicity (50% Cell Death) (Saccharomyces cerevisiae): none

CCN(c1ccc(C(=O)O)cc1)c1ccc(OCC(C)C)c(C(C)C)c1 [Compound 30, 4-(ethyl(4-isobutoxy-3-isopropylphenyl)amino)benzoic acid]
RARE Activity (%RA at 10 nM) (human RARα): 1.1 %RA
LXRE Activity (% of Bex) [1]: 60.2 % of Bex
EC50 (RXRα; [2]): 397 nM
Cyto-Toxicity (50% Cell Death) (Saccharomyces cerevisiae): 0.08 µg/µL

C=C(c1ccc(C(=O)O)cc1)c1cc2c(cc1C)C(C)(C)CCC2(C)C [Compound 1, reference compound]
Cyto-Toxicity (50% Cell Death) (Saccharomyces cerevisiae): 0.5 µg/µL

CC1(C)CCC(C)(C)c2cc(C3(c4ncc(C(=O)O)cn4)CC3)ccc21 [Compound 35, 2-(1-(5,5,8,8-tetramethyl-5,6,7,8-tetrahydronaphthalen-2-yl)cyclopropyl)pyrimidine-5-carboxylic acid]
RARE Activity (%RA at 10 nM) (human RARα): 5.1 %RA
LXRE Activity (% of Bex) [1]: 60.6 % of Bex
EC50 (RXRα; [2]): 1.3 nM
Cyto-Toxicity (50% Cell Death) (Saccharomyces cerevisiae): none
